# Target: T1, PIKfyve (Homo sapiens, UniProt Q9Y2I7)
# T1 construct: T7 phage fusion (kinase-tagged phage) or DNA tag for qPCR; made in house; host or cells: E. coli BL21-derived host (T7 phage) for most kinases, HEK-293 for the rest
# Assay: Kinase binding assay (kinase-tagged T7 phage, affinity beads, qPCR readout), Kd determination
# Settings: 11-point 3-fold dilution series
# Method: Kinase assays. For most assays, kinase-tagged T7 phage strains were prepared in an E. coli host derived from the BL21 strain. E. coli were grown to log-phase and infected with T7 phage and incubated with shaking at 32° C. until lysis. The lysates were centrifuged and filtered to remove cell debris. The remaining kinases were produced in HEK-293 cells and subsequently tagged with DNA for qPCR detection. Streptavidin-coated magnetic beads were treated with biotinylated small molecule ligands for 30 minutes at room temperature to generate affinity resins for kinase assays. The liganded beads were blocked with excess biotin and washed with blocking buffer (SeaBlock (Pierce), 1% BSA, 0.05% Tween 20, 1 mM DTT) to remove unbound ligand and to reduce non-specific binding. Binding reactions were assembled by combining kinases, liganded affinity beads, and test compounds in 1× binding buffer (20% SeaBlock, 0.17×PBS, 0.05% Tween 20, 6 mM DTT). Test compounds were prepared as 111× stocks in 100% DMSO. Kds were determined using an 11-point 3-fold compound dilution series with three DMSO control points. All compounds for Kd measurements are distributed by acoustic transfer (non-contact dispensing) in 100% DMSO. The compounds were then diluted directly into the assays such that the final concentration of DMSO was 0.9%. All reactions performed in polypropylene 384-well plate. Each was a final volume of 0.02 ml. The assay plates were incubated at room temperature with shaking for 1 hour and the affinity beads were washed with wash buffer (1×PBS, 0.05% Tween 20). The beads were then re-suspended in elution buffer (1×PBS, 0.05% Tween 20, 0.5 μM non-biotinylated affinity ligand) and incubated at room temperature with shaking for 30 minutes. The kinase concentration in the eluates was measured by qPCR.
# An 11-point 3-fold serial dilution of each test compound was prepared in 100% DMSO at 100× final test concentration and subsequently diluted to 1× in the assay (final DMSO concentration=1%). Most Kds were determined using a compound top concentration=30,000 nM. If the initial Kd determined was <0.5 nM (the lowest concentration tested), the measurement was repeated with a serial dilution starting at a lower top concentration.
# T1 sequence (Q9Y2I7 whole entry, the tested form may be a part): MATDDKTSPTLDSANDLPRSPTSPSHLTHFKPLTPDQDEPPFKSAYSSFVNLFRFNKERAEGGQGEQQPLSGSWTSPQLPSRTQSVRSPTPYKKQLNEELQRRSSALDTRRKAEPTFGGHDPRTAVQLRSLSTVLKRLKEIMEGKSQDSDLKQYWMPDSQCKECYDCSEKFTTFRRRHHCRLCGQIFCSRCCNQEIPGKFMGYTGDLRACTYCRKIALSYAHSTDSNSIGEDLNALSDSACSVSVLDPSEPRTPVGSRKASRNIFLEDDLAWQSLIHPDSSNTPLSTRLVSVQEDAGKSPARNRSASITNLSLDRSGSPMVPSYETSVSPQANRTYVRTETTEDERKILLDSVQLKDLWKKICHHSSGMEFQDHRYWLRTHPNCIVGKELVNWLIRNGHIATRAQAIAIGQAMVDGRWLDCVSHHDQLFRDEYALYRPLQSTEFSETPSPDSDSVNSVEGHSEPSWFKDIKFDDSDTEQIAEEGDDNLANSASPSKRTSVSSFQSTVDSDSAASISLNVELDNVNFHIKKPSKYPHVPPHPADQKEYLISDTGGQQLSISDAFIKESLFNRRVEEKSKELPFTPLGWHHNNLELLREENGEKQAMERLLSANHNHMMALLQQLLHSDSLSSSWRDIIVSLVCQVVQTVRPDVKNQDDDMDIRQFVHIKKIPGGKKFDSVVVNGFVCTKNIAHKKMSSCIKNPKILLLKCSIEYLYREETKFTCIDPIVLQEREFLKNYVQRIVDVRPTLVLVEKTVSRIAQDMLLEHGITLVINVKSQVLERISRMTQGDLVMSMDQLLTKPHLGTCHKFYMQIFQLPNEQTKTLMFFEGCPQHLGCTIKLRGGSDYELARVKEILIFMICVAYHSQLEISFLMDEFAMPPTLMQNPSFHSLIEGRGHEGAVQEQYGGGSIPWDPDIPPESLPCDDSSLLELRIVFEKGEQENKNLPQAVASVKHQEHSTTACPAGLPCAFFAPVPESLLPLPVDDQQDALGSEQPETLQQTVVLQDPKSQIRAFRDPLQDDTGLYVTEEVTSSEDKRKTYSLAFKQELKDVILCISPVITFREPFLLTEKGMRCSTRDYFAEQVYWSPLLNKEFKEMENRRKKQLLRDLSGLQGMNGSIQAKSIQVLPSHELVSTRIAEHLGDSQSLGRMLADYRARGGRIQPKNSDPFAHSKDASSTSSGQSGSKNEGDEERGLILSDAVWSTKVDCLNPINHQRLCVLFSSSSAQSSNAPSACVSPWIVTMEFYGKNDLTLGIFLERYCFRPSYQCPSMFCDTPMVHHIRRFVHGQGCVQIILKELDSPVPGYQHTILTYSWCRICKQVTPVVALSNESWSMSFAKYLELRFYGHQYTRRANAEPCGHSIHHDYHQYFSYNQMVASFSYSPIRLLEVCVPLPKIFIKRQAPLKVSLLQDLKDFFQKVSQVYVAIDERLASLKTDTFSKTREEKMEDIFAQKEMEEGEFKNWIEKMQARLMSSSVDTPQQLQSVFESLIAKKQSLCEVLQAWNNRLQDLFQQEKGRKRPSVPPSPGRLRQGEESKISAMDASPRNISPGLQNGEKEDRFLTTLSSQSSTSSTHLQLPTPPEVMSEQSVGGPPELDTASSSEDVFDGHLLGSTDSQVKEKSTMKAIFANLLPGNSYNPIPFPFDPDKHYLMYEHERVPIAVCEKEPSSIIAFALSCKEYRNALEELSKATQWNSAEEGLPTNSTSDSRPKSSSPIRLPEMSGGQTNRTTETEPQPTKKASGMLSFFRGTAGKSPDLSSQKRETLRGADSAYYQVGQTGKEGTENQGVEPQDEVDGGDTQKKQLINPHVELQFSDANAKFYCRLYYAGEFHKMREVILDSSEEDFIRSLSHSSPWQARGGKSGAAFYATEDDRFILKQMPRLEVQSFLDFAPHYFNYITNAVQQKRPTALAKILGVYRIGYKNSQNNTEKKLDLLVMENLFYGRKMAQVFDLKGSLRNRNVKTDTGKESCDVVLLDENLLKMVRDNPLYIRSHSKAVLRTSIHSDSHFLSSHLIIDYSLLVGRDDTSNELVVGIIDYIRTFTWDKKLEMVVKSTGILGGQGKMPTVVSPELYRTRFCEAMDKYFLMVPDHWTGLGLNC
row,Kd,SMILES
1,1 to 5 nM,"Cc1cccc(/C=N/Nc2nc3c(c(N4CCOCC4)n2)CN(c2ccncn2)C3)c1 [Example 24, 4-morpholino-N-[(E)-m-tolylmethyleneamino]-6-pyrimidin-4-yl-5,7-dihydropyrrolo[3,4-d]pyrimidin-2-amine]"
2,5 to 10 nM,"Cc1cccc(/C=N/Nc2nc3c(c(N4CCOCC4)n2)CN(C(=O)Nc2ccc(F)cc2)C3)c1 [Example 2, N-(4-Fluorophenyl)-4-morpholino-2-[(2E)-2-(m-tolylmethylene)hydrazino]-5,7-dihydropyrrolo[3,4-d]pyrimidine-6-carboxamide]"
3,60 to 100 nM,"O=C(Nc1cccnc1)N1Cc2nc(N/N=C/c3cccc(O)c3)nc(N3CCOCC3)c2C1 [Example 6, 2-[(2E)-2-[(3-hydroxyphenyl)methylene]hydrazino]-4-morpholino-N-(3-pyridyl)-5,7-dihydropyrrolo[3,4-d]pyrimidine-6-carboxamide]"
4,1 to 5 nM,"Cc1cccc(/C=N/Nc2nc3c(c(N4CCOCC4)n2)CN(S(=O)(=O)N(C)C)C3)c1 [Example 21, N,N-dimethyl-4-morpholino-2-[(2E)-2-(m-tolylmethylene)hydrazino]-5,7-dihydropyrrolo[3,4-d]pyrimidine-6-sulfonamide]"
5,1 to 5 nM,"Cc1cccc(/C=N/Nc2nc3c(c(N4CCOCC4)n2)CN(S(=O)(=O)c2cccnc2)C3)c1 [Example 19, 4-morpholino-N-[(E)-m-tolylmethyleneamino]-6-(3-pyridylsulfonyl)-5,7-dihydropyrrolo[3,4-d]pyrimidin-2-amine]"
6,5 to 10 nM,"COc1cccc(-c2cc(O)n(-c3nc(N4CCOCC4)c4sc(-c5ccncc5)cc4n3)n2)c1 [Example 34, 5-(3-methoxyphenyl)-2-[4-morpholino-6-(4-pyridyl)thieno[3,2-d]pyrimidin-2-yl]pyrazol-3-ol]"
7,5 to 10 nM,"Cc1cccc(/C=N/Nc2nc3c(c(N4CCOC[C@H]4C)n2)CN(c2ncccn2)C3)c1 [Example 26, 4-[(3R)-3-methylmorpholin-4-yl]-N-[(E)-m-tolylmethyleneamino]-6-pyrimidin-2-yl-5,7-dihydropyrrolo[3,4-d]pyrimidin-2-amine]"
8,5 to 10 nM,"CCNC(=O)N1Cc2nc(N/N=C/c3cccc(C)c3)nc(N3CCOCC3)c2C1 [Example 1, N-ethyl-4-morpholino-2-[(2E)-2-(m-tolylmethylene)hydrazino]-5,7-dihydropyrrolo[3,4-d]pyrimidine-6-carboxamide]"
9,100 to 2000 nM,"Cc1cccc(-c2cc(O)n(-c3nc4c(c(N5CCOCC5)n3)CN(S(=O)(=O)c3c(C)noc3C)C4)n2)c1 [Example 37, 2-[6-(3,5-dimethylisoxazol-4-yl)sulfonyl-4-morpholino-5,7-dihydropyrrolo[3,4-d]pyrimidin-2-yl]-5-(m-tolyl)pyrazol-3-ol]"
10,100 to 2000 nM,"O=C(Nc1cccnc1)N1Cc2nc(N/N=C/c3cccc(C(F)(F)F)c3)nc(N3CCOCC3)c2C1 [Example 8, 4-morpholino-N-(3-pyridyl)-2-[(2E)-2-[[3-(trifluoromethyl)phenyl]methylene]hydrazino]-5,7-dihydropyrrolo[3,4-d]pyrimidine-6-carboxamide]"
11,10 to 60 nM,"Cc1cccc(/C=N/Nc2nc3c(c(N4CCOCC4)n2)CN(Cc2ccccn2)C3)c1 [Example 11, 4-morpholino-N-[(E)-m-tolylmethyleneamino]-6-(2-pyridylmethyl)-5,7-dihydropyrrolo[3,4-d]pyrimidin-2-amine]"
12,1 to 5 nM,"Cc1cccc(/C=N/Nc2nc3c(c(N4CCOC[C@@H]4C)n2)CN(c2ncccn2)C3)c1 [Example 25, 4-[(3S)-3-methylmorpholin-4-yl]-N-[(E)-m-tolylmethyleneamino]-6-pyrimidin-2-yl-5,7-dihydropyrrolo[3,4-d]pyrimidin-2-amine]"
13,≤ 1 nM,"Cc1cccc(/C=N/Nc2nc3c(c(N4CCOCC4)n2)CN(S(=O)(=O)c2cn(C)cn2)C3)c1 [Example 15, 6-(1-methylimidazol-4-yl)sulfonyl-4-morpholino-N-[(E)-m-tolylmethyleneamino]-5,7-dihydropyrrolo[3,4-d]pyrimidin-2-amine]"
14,1 to 5 nM,"Cc1cccc(/C=N/Nc2cc(N3CCOCC3)n3nc(C(=O)NC4CC(F)(F)C4)cc3n2)c1 [Example 42, N-(3,3-difluorocyclobutyl)-7-morpholino-5-[(2E)-2-(m-tolylmethylene)hydrazino]pyrazolo[1,5-a]pyrimidine-2-carboxamide]"
15,5 to 10 nM,"Cc1cccc(-c2cc(O)n(-c3nc4c(c(N5CCOCC5)n3)CN(C(=O)Nc3cccnc3)C4)n2)c1 [Example 38, 2-[5-hydroxy-3-(m-tolyl)pyrazol-1-yl]-4-morpholino-N-(3-pyridyl)-5,7-dihydropyrrolo[3,4-d]pyrimidine-6-carboxamide methane sulfonate]"
16,≤ 1 nM,"Cc1cccc(/C=N/Nc2nc3c(c(N4CCOCC4)n2)CN(S(=O)(=O)c2c(C)n[nH]c2C)C3)c1 [Example 20, 6-[(3,5-dimethyl-1H-pyrazol-4-yl)sulfonyl]-4-morpholino-N-[(E)-m-tolylmethyleneamino]-5,7-dihydropyrrolo[3,4-d]pyrimidin-2-amine]"
17,1 to 5 nM,"Cc1cccc(/C=N/Nc2nc3c(c(N4CCOCC4)n2)CN(c2ncccn2)C3)c1 [Example 23, 4-morpholino-N-[(E)-m-tolylmethyleneamino]-6-pyrimidin-2-yl-5,7-dihydropyrrolo[3,4-d]pyrimidin-2-amine]"
18,1 to 5 nM,"Cc1cccc(/C=N/Nc2nc3c(c(N4CCOCC4)n2)CN(C(=O)NC2CCC2)C3)c1 [Example 5, N-cyclobutyl-4-morpholino-2-[(2E)-2-(m-tolylmethylene)hydrazino]-5,7-dihydropyrrolo[3,4-d]pyrimidine-6-carboxamide]"
19,1 to 5 nM,"Cc1cccc(/C=N/Nc2nc3c(c(N4CCOCC4)n2)CN(C(=O)NC2CCCC2)C3)c1 [Example 4, N-cyclopentyl-4-morpholino-2-[(2E)-2-(m-tolylmethylene)hydrazino]-5,7-dihydropyrrolo[3,4-d]pyrimidine-6-carboxamide]"
20,≤ 1 nM,"Cc1cccc(/C=N/Nc2cc(N3CCOCC3)n3nc(C(=O)NC4COC4)cc3n2)c1 [Example 41, 7-morpholino-5-[(2E)-2-(m-tolylmethylene)hydrazino]-N-(oxetan-3-yl)pyrazolo[1,5-a]pyrimidine-2-carboxamide]"
21,5 to 10 nM,"Cc1cccc(/C=N/Nc2nc3c(c(N4CCOCC4)n2)CN(C(=O)NC2CNC2)C3)c1 [Example 28, N-(azetidin-3-yl)-4-morpholino-2-[(2E)-2-(m-tolylmethylene)hydrazino]-5,7-dihydropyrrolo[3,4-d]pyrimidine-6-carboxamide]"
22,1 to 5 nM,"Cc1cccc(/C=N/Nc2nc3c(c(N4CCOCC4)n2)CN(Cc2cccnc2)C3)c1 [Example 10, 4-morpholino-N-[(E)-m-tolylmethyleneamino]-6-(3-pyridylmethyl)-5,7-dihydropyrrolo[3,4-d]pyrimidin-2-amine]"
23,≤ 1 nM,"Cc1cccc(-c2cc(O)n(-c3nc(N4CCOCC4)c4sc(-c5ccncc5)cc4n3)n2)c1 [Example 33, 2-[4-morpholino-6-(4-pyridyl)thieno[3,2-d]pyrimidin-2-yl]-5-(m-tolyl)pyrazol-3-ol methane sulfonate]"
24,5 to 10 nM,"Cc1cccc(/C=N/Nc2nc3c(c(N4CCOCC4)n2)CCN(S(=O)(=O)c2c(C)n[nH]c2C)C3)c1 [Example 29, 7-[(3,5-dimethyl-1H-pyrazol-4-yl)sulfonyl]-4-morpholino-N-[(E)-m-tolylmethyleneamino]-6,8-dihydro-5H-pyrido[3,4-d]pyrimidin-2-amine]"
25,1 to 5 nM,"Cc1cccc(/C=N/Nc2nc3c(c(N4CCOCC4)n2)CN(C(=O)Nc2cccnc2)C3)c1 [Example 3, 4-Morpholino-2-[(2E)-2-(m-tolylmethylene)hydrazino]-N-(3-pyridyl)-5,7-dihydropyrrolo[3,4-d]pyrimidine-6-carboxamide]"
26,1 to 5 nM,"Cc1cccc(/C=N/Nc2nc3c(c(N4CCOCC4)n2)CN(S(=O)(=O)c2c(C)noc2C)C3)c1 [Example 22, 6-(3,5-dimethylisoxazol-4-yl)sulfonyl-4-morpholino-N-[(E)-m-tolylmethyleneamino]-5,7-dihydropyrrolo[3,4-d]pyrimidin-2-amine]"
27,1 to 5 nM,"Cc1cccc(/C=N/Nc2nc3c(c(N4CCOCC4)n2)CN(S(=O)(=O)c2ccc(C(=O)O)cc2)C3)c1 [Example 17, 4-[[4-morpholino-2-[(2E)-2-(m-tolylmethylene)hydrazino]-5,7-dihydropyrrolo[3,4-d]pyrimidin-6-yl]sulfonyl]benzoic acid]"
28,10 to 60 nM,"O=C(Nc1cccnc1)N1Cc2nc(N/N=C/c3cccc(Cl)c3)nc(N3CCOCC3)c2C1 [Example 7, 2-[(2E)-2-[(3-chlorophenyl)methylene]hydrazino]-4-morpholino-N-(3-pyridyl)-5,7-dihydropyrrolo[3,4-d]pyrimidine-6-carboxamide]"
